What was measured:
GtfB = target: T1, GtfB (Streptococcus mutans, UniProt P08987); assay: incorporation of […]-glucose from labelled sucrose into glucans, scintillation counting; format: biochemical
T1 construct: secreted enzyme from culture supernatant of S. milleri KSB8 carrying gtfB of S. mutans GS-5; purified to near homogeneity by hydroxyapatite chromatography

GtfC = target: T2, GtfC (Streptococcus mutans, UniProt P13470); assay: as above; format: biochemical
T2 construct: secreted enzyme from culture supernatant of S. mutans WHB 410 (expresses gtfC only); purified to near homogeneity by hydroxyapatite chromatography
T2 sequence (P13470 35-1455): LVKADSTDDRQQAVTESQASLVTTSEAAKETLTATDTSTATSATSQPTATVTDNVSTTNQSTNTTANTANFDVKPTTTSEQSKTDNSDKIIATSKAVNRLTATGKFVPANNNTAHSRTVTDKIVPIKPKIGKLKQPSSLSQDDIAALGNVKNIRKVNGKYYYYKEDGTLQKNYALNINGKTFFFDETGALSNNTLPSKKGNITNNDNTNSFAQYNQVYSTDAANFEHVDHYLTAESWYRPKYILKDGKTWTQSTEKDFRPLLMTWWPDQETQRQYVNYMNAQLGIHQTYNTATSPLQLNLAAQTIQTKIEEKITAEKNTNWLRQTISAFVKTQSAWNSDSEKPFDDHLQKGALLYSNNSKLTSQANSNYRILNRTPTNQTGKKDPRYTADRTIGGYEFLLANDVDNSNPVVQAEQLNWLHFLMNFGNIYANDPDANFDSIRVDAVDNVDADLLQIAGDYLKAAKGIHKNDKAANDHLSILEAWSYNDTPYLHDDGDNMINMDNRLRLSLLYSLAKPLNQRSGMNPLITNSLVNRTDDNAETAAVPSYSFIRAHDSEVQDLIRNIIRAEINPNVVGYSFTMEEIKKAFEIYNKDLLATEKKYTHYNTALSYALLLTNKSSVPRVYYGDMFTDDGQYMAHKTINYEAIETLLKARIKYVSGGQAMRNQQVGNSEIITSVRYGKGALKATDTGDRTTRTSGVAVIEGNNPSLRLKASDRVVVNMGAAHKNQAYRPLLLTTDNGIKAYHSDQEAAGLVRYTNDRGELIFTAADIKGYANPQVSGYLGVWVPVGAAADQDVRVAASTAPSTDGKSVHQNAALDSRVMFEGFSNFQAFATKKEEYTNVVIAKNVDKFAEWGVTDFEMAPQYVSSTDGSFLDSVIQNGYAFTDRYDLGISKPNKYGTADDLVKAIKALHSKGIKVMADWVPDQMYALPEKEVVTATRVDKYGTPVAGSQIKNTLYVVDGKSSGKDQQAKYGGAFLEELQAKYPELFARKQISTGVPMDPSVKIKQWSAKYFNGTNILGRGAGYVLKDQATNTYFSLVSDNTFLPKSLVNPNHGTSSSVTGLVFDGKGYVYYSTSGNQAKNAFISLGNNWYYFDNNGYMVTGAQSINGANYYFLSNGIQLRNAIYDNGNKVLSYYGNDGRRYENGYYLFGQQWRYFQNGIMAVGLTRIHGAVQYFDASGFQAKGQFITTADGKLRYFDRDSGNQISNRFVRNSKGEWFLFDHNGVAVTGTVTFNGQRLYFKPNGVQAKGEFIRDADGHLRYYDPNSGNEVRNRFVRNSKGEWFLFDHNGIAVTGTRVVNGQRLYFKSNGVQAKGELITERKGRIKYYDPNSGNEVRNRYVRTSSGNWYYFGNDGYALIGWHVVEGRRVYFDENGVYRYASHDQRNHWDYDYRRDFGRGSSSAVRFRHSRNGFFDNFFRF

T1 sequence (P08987 35-1476): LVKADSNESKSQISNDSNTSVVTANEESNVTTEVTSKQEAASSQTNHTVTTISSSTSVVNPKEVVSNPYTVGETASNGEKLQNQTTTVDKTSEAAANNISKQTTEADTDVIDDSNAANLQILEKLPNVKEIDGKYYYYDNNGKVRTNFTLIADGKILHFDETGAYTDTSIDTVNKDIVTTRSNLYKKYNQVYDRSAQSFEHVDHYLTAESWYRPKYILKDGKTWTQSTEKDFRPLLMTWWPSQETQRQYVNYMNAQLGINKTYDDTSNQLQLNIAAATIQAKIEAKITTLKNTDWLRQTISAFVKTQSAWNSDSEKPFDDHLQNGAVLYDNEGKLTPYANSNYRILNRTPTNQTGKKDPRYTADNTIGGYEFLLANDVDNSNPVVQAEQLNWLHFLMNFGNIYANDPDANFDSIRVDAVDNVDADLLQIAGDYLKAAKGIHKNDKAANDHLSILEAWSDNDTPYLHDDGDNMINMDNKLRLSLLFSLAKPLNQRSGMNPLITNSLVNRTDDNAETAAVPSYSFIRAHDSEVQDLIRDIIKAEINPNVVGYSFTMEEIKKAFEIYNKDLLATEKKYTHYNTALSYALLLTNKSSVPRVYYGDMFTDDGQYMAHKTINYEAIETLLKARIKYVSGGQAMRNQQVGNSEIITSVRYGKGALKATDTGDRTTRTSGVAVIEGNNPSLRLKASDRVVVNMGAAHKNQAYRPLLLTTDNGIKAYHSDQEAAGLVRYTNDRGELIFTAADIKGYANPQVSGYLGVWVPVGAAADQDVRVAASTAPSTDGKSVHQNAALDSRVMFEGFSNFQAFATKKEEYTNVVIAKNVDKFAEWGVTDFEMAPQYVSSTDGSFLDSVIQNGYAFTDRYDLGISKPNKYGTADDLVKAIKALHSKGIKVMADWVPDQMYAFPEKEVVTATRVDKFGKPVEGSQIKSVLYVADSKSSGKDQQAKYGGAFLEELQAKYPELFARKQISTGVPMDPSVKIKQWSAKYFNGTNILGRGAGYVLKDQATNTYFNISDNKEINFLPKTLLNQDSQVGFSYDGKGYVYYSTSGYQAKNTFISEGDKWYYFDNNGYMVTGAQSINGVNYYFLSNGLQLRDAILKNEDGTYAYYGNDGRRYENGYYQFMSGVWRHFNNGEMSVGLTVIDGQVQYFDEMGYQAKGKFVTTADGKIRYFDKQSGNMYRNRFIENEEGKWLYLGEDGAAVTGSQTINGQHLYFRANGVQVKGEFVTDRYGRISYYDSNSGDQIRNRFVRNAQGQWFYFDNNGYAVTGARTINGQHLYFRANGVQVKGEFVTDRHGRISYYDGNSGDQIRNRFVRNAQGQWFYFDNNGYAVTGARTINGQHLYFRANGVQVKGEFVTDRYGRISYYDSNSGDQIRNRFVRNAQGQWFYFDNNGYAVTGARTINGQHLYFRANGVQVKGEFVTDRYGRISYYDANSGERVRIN

`COc1c(O)cc2oc3cc(O)c(CC=C(C)C)c(O)c3c(=O)c2c1CC=C(C)C` [αMG, α-mangostin] was tested, and the inhibition at 150 µM (GtfB) was greater than 70% and the inhibition at 150 µM (GtfC) was greater than 70%.

— article PMC4211880, “α-Mangostin Disrupts the Development of Streptococcus mutans Biofilms and Facilitates Its Mechanical Removal” (PLoS ONE, 2014)
